Assay results published in patent US12195482B1 (Arcus Biosciences, Inc., priority 2022, dated 2025).
pIC50: −log10 of the molar value.

These molecules were tested against T1, Axl (Homo sapiens, UniProt P30530) (assay: Axl NanoBRET intracellular kinase assay (intracellular binding, K-5 tracer displacement)). Details: HEK-293 cells transfected with Axl-NanoLuc, 0.35 μM K-5 NanoBRET tracer; read-out: Cell Binding AXL.
T1 sequence (P30530 26-894): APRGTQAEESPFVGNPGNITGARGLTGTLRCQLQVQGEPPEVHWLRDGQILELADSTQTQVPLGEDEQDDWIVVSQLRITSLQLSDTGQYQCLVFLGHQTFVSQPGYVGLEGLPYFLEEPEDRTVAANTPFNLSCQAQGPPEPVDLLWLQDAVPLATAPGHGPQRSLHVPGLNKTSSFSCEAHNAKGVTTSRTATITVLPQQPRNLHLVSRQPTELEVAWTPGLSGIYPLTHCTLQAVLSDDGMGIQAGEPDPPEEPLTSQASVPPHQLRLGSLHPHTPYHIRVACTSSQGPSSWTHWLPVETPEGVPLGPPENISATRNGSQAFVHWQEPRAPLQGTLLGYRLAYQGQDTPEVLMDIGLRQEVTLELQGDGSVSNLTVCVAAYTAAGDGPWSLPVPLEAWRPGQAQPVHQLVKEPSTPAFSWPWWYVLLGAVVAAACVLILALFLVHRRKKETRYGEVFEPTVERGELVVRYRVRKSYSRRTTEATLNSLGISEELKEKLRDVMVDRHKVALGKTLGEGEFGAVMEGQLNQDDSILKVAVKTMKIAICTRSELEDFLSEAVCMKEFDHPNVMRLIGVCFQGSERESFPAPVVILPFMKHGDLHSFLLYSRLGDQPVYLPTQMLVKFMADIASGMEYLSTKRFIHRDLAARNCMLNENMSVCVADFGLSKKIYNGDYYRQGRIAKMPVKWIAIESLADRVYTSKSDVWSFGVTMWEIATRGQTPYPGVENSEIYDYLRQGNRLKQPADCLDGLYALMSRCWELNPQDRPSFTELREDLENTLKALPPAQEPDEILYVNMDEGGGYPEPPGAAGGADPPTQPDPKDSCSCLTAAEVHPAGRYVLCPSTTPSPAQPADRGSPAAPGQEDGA
Design: host or cells: HEK-293
Method: Measuring Intracellular Binding of Axl Inhibitors
Axl NanoBRET™ intracellular kinase assay (Promega, N2540) was performed according to manufacturer's recommendation. In brief, HEK-293 cells are transiently transfected with Ax1-NanoLuc fusion vector (Promega, NV1071), utilizing Fugene HD transfection reagent (Promega, E2311) a day before experiment following manufacturer's recommendation.
The day of the assay, the cells were collected and resuspended in Opti-MEM media (ThermoFisher, 31985070) at 2e5 cells/mL concentration. Testing compounds were serial diluted and dispensed into a white 384 well polystyrene plate at 200 nL in 100% DMSO. 40 μL of resuspended cells is then added per well for a final condition of 8K cells/well with 0.5% DMSO. After one-hour compound pre-incubation at 37° C. and 5% CO2, cells were further incubated with 0.35 μM K-5 NanoBRET tracer for two-hours at 37° C. and 5% CO2. […] of 3× substrate plus Inhibitor solution was prepared according to kits manual and added to the cells followed by a 30 second pulse centrifugation spin. The plate was then immediately read utilizing an Envision (Perkin Elmer) plate reader. The BRET signal is measured by taking the ratio of the emissions reading at 610 nm and 450 nm. Compound binding is based on the decrease BRET signal caused by the displacement of the K-5 tracer. […] ICso value of compounds was determined by 4-parameter non-linear regression fitting of percent activity in GraphPad Prism software.
For `c1cc(-n2cc(-c3c[nH]c4ncc(-c5ccc6c(c5)CC[C@@H](N5C7COCC5C7)CC6)cc34)cn2)ccn1` [Example 45, 6-[(7S)-2-{3-[1-(Pyridin-4-yl)-1H-pyrazol-4-yl]-1H-pyrrolo[2,3-b]pyridin-5-yl}-6,7,8,9-tetrahydro-5H-benzo[7]annulen-7-yl]-3-oxa-6-azabicyclo[3.1.1]heptane], the pIC50 was greater than 7.00. `C[C@@H]1CCCN1[C@@]1(C)CCc2ccc(-c3cnc4[nH]nc(-c5ccc(-c6ncco6)cc5)c4c3)cc2CC1` [Example 90, 2-(4-{5-[(7S)-7-Methyl-7-[(2R)-2-methylpyrrolidin-1-yl]-6,7,8,9-tetrahydro-5H-benzo[7]annulen-2-yl]-2H-pyrazolo[3,4-b]pyridin-3-yl}phenyl)-1,3-oxazole] was tested, and the pIC50 was greater than 7.00. `Cc1cccnc1-c1ccc(-c2c[nH]c3ncc(-c4ccc5c(c4)CC[C@@H](N4C6COCC4C6)CC5)cc23)cc1` [Example 1, 6-[(7S)-2-{3-[4-(3-Methylpyridin-2-yl)phenyl]-1H-pyrrolo[2,3-b]pyridin-5-yl}-6,7,8,9-tetrahydro-5H-benzo[7]annulen-7-yl]-3-oxa-6-azabicyclo[3.1.1]heptane] gave a pIC50 greater than 7.00. With `c1cc(-c2ccc(-c3c[nH]c4ncc(-c5ccc6c(c5)CC[C@@H](N5C7COCC5C7)CC6)cc34)cc2)ccn1` [Example 41, 6-[(7S)-2-{3-[4-(Pyridin-4-yl)phenyl]-1H-pyrrolo[2,3-b]pyridin-5-yl}-6,7,8,9-tetrahydro-5H-benzo[7]annulen-7-yl]-3-oxa-6-azabicyclo[3.1.1]heptane] the pIC50 was 6.00 to 7.00. Molecule `Clc1cccnc1-c1ccc(-c2c[nH]c3ncc(-c4ccc5c(c4)CC[C@@H](N4C6COCC4C6)CC5)cc23)cc1` [Example 43, 6-[(7S)-2-{3-[4-(3-Chloropyridin-2-yl)phenyl]-1H-pyrrolo[2,3-b]pyridin-5-yl}-6,7,8,9-tetrahydro-5H-benzo[7]annulen-7-yl]-3-oxa-6-azabicyclo[3.1.1]heptane] has a pIC50 of 6.00 to 7.00. `Cc1ccnnc1-c1ccc(-c2c[nH]c3ncc(-c4ccc5c(c4)CC[C@@H](N4C6COCC4C6)CC5)cc23)cc1` [Example 49, 6-[(7S)-2-{3-[4-(4-Methylpyridazin-3-yl)phenyl]-1H-pyrrolo[2,3-b]pyridin-5-yl}-6,7,8,9-tetrahydro-5H-benzo[7]annulen-7-yl]-3-oxa-6-azabicyclo[3.1.1]heptane] gave a pIC50 greater than 7.00. For `Cc1cncnc1-c1ccc(-c2c[nH]c3ncc(-c4ccc5c(c4)CC[C@@H](N4C6COCC4C6)CC5)cc23)cc1` [Example 47, 6-[(7S)-2-{3-[4-(5-Methylpyrimidin-4-yl)phenyl]-1H-pyrrolo[2,3-b]pyridin-5-yl}-6,7,8,9-tetrahydro-5H-benzo[7]annulen-7-yl]-3-oxa-6-azabicyclo[3.1.1]heptane], the pIC50 was greater than 7.00. `CS(=O)(=O)c1ccccc1-c1ccc(-c2c[nH]c3ncc(-c4ccc5c(c4)CC[C@@H](N4C6COCC4C6)CC5)cc23)cc1` [Example 93, 6-[(7S)-2-(3-{2′-Methanesulfonyl-[1,1′-biphenyl]-4-yl}-1H-pyrrolo[2,3-b]pyridin-5-yl)-6,7,8,9-tetrahydro-5H-benzo[7]annulen-7-yl]-3-oxa-6-azabicyclo[3.1.1]heptane] gave a pIC50 greater than 7.00. For `Cc1nncn1-c1ccc(-c2n[nH]c3ncc(-c4ccc5c(c4)CC[C@@H](N4C6COCC4C6)CC5)cc23)cc1` [Example 11, 6-[(7S)-2-{3-[4-(3-Methyl-4H-1,2,4-triazol-4-yl)phenyl]-1H-pyrazolo[3,4-b]pyridin-5-yl}-6,7,8,9-tetrahydro-5H-benzo[7]annulen-7-yl]-3-oxa-6-azabicyclo[3.1.1]heptane], the pIC50 was 6.00 to 7.00. Molecule `N#Cc1cccnc1-c1ccc(-c2c[nH]c3ncc(-c4ccc5c(c4)CC[C@@H](N4C6COCC4C6)CC5)cc23)cc1` [Example 46, 2-(4-{5-[(7S)-7-{3-Oxa-6-azabicyclo[3.1.1]heptan-6-yl}-6,7,8,9-tetrahydro-5H-benzo[7]annulen-2-yl]-1H-pyrrolo[2,3-b]pyridin-3-yl}phenyl)pyridine-3-carbonitrile] has a pIC50 greater than 7.00. `C[C@@H]1CCCN1[C@@]1(C)CCc2ccc(-c3cnc4[nH]nc(-c5ccc(-c6nccs6)cc5)c4c3)cc2CC1` [Example 91, 2-(4-{5-[(7S)-7-Methyl-7-[(2R)-2-methylpyrrolidin-1-yl]-6,7,8,9-tetrahydro-5H-benzo[7]annulen-2-yl]-2H-pyrazolo[3,4-b]pyridin-3-yl}phenyl)-1,3-thiazole] gave a pIC50 greater than 7.00. `CN(C)C(=O)c1ccccc1-c1ccc(-c2c[nH]c3ncc(-c4ccc5c(c4)CC[C@@H](N4C6COCC4C6)CC5)cc23)cc1` [Example 92, N,N-Dimethyl-4′-{5-[(7S)-7-{3-oxa-6-azabicyclo[3.1.1]heptan-6-yl}-6,7,8,9-tetrahydro-5H-benzo[7]annulen-2-yl]-1H-pyrrolo[2,3-b]pyridin-3-yl}-[1,1′-biphenyl]-2-carboxamide] was tested, and the pIC50 was greater than 7.00. `c1cncc(-c2ccc(-c3n[nH]c4ncc(-c5ccc6c(c5)CC[C@@H](N5C7COCC5C7)CC6)cc34)cc2)c1` [Example 157, 6-[(7S)-2-{3-[4-(Pyridin-3-yl)phenyl]-2H-pyrazolo[3,4-b]pyridin-5-yl}-6,7,8,9-tetrahydro-5H-benzo[7]annulen-7-yl]-3-oxa-6-azabicyclo[3.1.1]heptane] showed a pIC50 of 6.00 to 7.00. `Fc1cc(-c2c[nH]c3ncc(-c4ccc5c(c4)CC[C@@H](N4C6COCC4C6)CC5)cc23)ccc1-c1ccccn1` [Example 40, 6-[(7S)-2-{3-[3-Fluoro-4-(pyridin-2-yl)phenyl]-1H-pyrrolo[2,3-b]pyridin-5-yl}-6,7,8,9-tetrahydro-5H-benzo[7]annulen-7-yl]-3-oxa-6-azabicyclo[3.1.1]heptane] gave a pIC50 of 6.00 to 7.00. Work on `Cc1cccnc1-c1ccc(-c2n[nH]c3ncc(-c4ccc5c(c4)CC[C@@H](N4C6COCC4C6)CC5)cc23)cc1` [Example 2, 6-[(7S)-2-{3-[4-(3-Methylpyridin-2-yl)phenyl]-2H-pyrazolo[3,4-b]pyridin-5-yl}-6,7,8,9-tetrahydro-5H-benzo[7]annulen-7-yl]-3-oxa-6-azabicyclo[3.1.1]heptane] yielded a pIC50 greater than 7.00. In the case of `COc1cc(-c2n[nH]c3ncc(-c4ccc5c(c4)CC[C@@H](N4C6COCC4C6)CC5)cc23)ccc1-c1ccccn1` [Example 160, 6-[(7S)-2-{3-[3-Methoxy-4-(pyridin-2-yl)phenyl]-2H-pyrazolo[3,4-b]pyridin-5-yl}-6,7,8,9-tetrahydro-5H-benzo[7]annulen-7-yl]-3-oxa-6-azabicyclo[3.1.1]heptane], the pIC50 was 6.00 to 7.00. Molecule `COc1cc(-c2c[nH]c3ncc(-c4ccc5c(c4)CC[C@@H](N4C6COCC4C6)CC5)cc23)ccc1-c1ccccn1` [Example 161, 6-[(7S)-2-{3-[3-Methoxy-4-(pyridin-2-yl)phenyl]-1H-pyrrolo[2,3-b]pyridin-5-yl}-6,7,8,9-tetrahydro-5H-benzo[7]annulen-7-yl]-3-oxa-6-azabicyclo[3.1.1]heptane] has a pIC50 of 6.00 to 7.00. `Fc1cccnc1-c1ccc(-c2c[nH]c3ncc(-c4ccc5c(c4)CC[C@@H](N4C6COCC4C6)CC5)cc23)cc1` [Example 42, 6-[(7S)-2-{3-[4-(3-Fluoropyridin-2-yl)phenyl]-1H-pyrrolo[2,3-b]pyridin-5-yl}-6,7,8,9-tetrahydro-5H-benzo[7]annulen-7-yl]-3-oxa-6-azabicyclo[3.1.1]heptane] was tested, and the pIC50 was 6.00 to 7.00. For `COc1cccc(-c2ccc(-c3n[nH]c4ncc(-c5ccc6c(c5)CC[C@@H](N5C7COCC5C7)CC6)cc34)cc2)n1` [Example 162, 6-[(7S)-2-{3-[4-(6-Methoxypyridin-2-yl)phenyl]-2H-pyrazolo[3,4-b]pyridin-5-yl}-6,7,8,9-tetrahydro-5H-benzo[7]annulen-7-yl]-3-oxa-6-azabicyclo[3.1.1]heptane], the pIC50 was less than 6.00. In the case of `Cc1nccnc1-c1ccc(-c2c[nH]c3ncc(-c4ccc5c(c4)CC[C@@H](N4C6COCC4C6)CC5)cc23)cc1` [Example 48, 6-[(7S)-2-{3-[4-(3-Methylpyrazin-2-yl)phenyl]-1H-pyrrolo[2,3-b]pyridin-5-yl}-6,7,8,9-tetrahydro-5H-benzo[7]annulen-7-yl]-3-oxa-6-azabicyclo[3.1.1]heptane], the pIC50 was greater than 7.00.
